The text below walks through data of ChEMBL document CHEMBL3352320, “Novel benzothiazinones (BTOs) as allosteric modulator or substrate competitive inhibitor of glycogen synthase kinase 3β (GSK-3β) with cellular activity of promoting glucose uptake” (Bioorg Med Chem Lett, 2014).

The IC50 is the concentration that gives 50% inhibition. As a reminder, the inhibition is how much of the control response was suppressed.

Structures are written as SMILES. Activity calls are given as the source filed them. The calls are words filed in the database; no cut-off is given here. Non-standard residues stand in square brackets, D forms with d. Residues, ends and D or L forms follow the SMILES beside them. *: point of attachment. Myristoyl = CCCCCCCCCCCCCC(=O)*; pS = N[C@@H](COP(=O)(O)O)C(=O)O

For assay [1], the target named is T1, Glycogen synthase kinase-3 beta (Homo sapiens, UniProt P49841). The assay is described as follows: Inhibition of GSK3beta (unknown origin) using peptide substrate GS2 assessed as ATP remaining by Kinase-Glo luminescent kinase assay.
Target sequence in this assay (P49841 whole entry): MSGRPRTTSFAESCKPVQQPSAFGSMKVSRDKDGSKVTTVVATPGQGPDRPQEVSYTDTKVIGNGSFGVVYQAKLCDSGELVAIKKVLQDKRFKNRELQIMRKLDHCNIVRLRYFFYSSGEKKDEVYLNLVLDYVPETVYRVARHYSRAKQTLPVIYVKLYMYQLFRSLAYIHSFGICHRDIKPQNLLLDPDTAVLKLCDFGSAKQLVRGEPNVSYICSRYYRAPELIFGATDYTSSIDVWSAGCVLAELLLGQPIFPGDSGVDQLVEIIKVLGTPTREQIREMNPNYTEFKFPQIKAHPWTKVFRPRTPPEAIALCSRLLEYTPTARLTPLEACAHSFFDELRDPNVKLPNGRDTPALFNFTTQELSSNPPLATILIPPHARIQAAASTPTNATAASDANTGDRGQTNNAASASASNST
In assay [2] the target is T1, Glycogen synthase kinase-3 beta. In words: Competitive inhibition of GSK3beta (unknown origin) using peptide substrate GS2 assessed as ATP remaining by Kinase-Glo luminescent kinase assay. (In general: Kinase-Glo reads ATP consumption through a luciferase reaction.)
Target sequence in this assay (P49841 whole entry, looked up): as the sequence (P49841 whole entry) above
For assay [3], the target named is Platelet-derived growth factor receptor alpha (Homo sapiens) (UniProt P16234). In words: Inhibition of PDGFRalpha (unknown origin) at 100 uM.
Platelet-derived growth factor receptor alpha (Homo sapiens), sequence (P16234 whole entry): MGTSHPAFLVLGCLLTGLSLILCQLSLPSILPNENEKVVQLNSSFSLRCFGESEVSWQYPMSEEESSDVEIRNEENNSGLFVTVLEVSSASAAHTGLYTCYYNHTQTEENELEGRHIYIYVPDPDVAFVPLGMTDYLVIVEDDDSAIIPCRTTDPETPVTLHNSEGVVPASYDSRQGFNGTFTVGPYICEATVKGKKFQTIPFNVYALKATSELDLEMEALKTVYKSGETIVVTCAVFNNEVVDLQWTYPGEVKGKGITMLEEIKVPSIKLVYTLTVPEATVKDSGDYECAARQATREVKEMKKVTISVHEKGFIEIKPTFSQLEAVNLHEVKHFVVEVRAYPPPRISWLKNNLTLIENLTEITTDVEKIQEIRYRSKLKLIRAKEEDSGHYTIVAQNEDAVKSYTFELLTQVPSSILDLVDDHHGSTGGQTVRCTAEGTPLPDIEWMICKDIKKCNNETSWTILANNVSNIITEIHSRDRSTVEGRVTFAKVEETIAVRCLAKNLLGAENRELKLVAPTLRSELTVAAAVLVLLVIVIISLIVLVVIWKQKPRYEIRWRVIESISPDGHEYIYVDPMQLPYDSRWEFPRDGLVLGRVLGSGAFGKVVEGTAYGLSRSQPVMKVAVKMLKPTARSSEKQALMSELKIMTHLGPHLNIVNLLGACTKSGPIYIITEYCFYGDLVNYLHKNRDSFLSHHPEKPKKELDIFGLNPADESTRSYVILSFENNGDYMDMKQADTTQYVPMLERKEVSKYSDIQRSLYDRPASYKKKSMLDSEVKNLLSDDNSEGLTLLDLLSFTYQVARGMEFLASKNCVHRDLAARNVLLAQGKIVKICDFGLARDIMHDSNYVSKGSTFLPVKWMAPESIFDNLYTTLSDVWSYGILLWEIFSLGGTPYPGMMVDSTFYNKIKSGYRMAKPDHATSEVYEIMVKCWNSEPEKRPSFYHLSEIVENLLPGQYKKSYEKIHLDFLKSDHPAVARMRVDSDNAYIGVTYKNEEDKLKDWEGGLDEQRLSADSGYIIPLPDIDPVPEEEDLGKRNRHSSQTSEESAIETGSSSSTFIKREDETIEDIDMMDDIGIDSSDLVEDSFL
The subject of assay [4] is HepG2. In words: Increase in glucose incorporation in human HepG2 cells at 10 uM after 12 hrs by glucose assay. The format is functional, cell-based.
The target in assay [5] is Casein kinase II (Homo sapiens) (UniProt P67870+P68400+P19784). In words: Inhibition of CK2 (unknown origin) at 100 uM. The format is protein-complex assay.
For assay [6], the target named is Protein kinase C alpha type (Homo sapiens) (UniProt P17252). In words: Inhibition of PKCalpha (unknown origin) at 100 uM.
Assay [7] deals with Proto-oncogene tyrosine-protein kinase Src (Homo sapiens) (UniProt P12931). The note with it: at 100 µM.
Description: Inhibition of c-Src (unknown origin) at 100 uM
The target of assay [8] is T1, Glycogen synthase kinase-3 beta. The assay is described as follows: Inhibition of GSK3beta in human […] cells assessed as decrease in ratio of phosphorylated GS/GS at 10 uM after 12 hrs by Western blot analysis. The format is cell-based.
Target sequence in this assay (P49841 whole entry, looked up): as the sequence (P49841 whole entry) above
Assay [9] addresses Platelet-derived growth factor receptor beta (Homo sapiens) (UniProt P09619). The assay is described as follows: Inhibition of PDGFRbeta (unknown origin) at 100 uM.
Assay [10] deals with Receptor tyrosine-protein kinase erbB-4 (Homo sapiens) (UniProt Q15303). The assay is described as follows: Inhibition of ErbB4 (unknown origin) at 100 uM.
Receptor tyrosine-protein kinase erbB-4 (Homo sapiens), sequence (Q15303 whole entry): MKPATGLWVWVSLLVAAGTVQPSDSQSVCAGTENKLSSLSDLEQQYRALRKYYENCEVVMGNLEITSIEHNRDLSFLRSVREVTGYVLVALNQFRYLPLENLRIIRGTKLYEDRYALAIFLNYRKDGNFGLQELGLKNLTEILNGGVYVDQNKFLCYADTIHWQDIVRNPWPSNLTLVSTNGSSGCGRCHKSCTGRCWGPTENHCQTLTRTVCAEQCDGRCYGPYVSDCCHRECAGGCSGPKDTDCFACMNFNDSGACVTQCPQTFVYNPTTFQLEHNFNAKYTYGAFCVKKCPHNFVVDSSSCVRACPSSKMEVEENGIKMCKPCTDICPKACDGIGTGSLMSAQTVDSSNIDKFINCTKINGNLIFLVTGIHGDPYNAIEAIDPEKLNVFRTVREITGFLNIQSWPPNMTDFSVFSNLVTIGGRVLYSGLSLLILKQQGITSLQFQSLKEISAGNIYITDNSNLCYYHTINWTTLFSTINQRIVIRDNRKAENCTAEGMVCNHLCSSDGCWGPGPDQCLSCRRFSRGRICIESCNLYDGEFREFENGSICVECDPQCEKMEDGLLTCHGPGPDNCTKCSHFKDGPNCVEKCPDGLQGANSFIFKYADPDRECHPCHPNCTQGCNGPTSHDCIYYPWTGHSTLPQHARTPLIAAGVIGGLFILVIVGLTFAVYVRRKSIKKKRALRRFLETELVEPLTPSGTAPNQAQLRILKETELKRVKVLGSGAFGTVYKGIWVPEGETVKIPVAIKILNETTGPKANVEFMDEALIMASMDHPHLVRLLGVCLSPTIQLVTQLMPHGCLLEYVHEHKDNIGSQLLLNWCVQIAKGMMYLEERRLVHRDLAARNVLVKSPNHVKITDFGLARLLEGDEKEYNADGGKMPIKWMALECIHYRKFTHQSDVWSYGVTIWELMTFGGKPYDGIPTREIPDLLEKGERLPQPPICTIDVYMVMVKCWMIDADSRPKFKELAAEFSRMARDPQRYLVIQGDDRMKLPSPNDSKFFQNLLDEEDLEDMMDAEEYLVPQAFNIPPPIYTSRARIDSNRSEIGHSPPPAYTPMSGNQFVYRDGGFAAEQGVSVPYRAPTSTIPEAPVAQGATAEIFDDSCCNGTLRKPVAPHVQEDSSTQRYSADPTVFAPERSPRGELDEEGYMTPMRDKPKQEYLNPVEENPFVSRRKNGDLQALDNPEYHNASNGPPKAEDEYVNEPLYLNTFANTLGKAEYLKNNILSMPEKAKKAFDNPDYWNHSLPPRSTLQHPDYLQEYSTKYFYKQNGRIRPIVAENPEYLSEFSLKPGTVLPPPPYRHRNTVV
In assay [11] the target is Fibroblast growth factor receptor 1 (Homo sapiens) (UniProt P11362). In words: Inhibition of FGFR1 (unknown origin) at 100 uM.
Fibroblast growth factor receptor 1 (Homo sapiens), sequence (P11362 22-822 limits assumed): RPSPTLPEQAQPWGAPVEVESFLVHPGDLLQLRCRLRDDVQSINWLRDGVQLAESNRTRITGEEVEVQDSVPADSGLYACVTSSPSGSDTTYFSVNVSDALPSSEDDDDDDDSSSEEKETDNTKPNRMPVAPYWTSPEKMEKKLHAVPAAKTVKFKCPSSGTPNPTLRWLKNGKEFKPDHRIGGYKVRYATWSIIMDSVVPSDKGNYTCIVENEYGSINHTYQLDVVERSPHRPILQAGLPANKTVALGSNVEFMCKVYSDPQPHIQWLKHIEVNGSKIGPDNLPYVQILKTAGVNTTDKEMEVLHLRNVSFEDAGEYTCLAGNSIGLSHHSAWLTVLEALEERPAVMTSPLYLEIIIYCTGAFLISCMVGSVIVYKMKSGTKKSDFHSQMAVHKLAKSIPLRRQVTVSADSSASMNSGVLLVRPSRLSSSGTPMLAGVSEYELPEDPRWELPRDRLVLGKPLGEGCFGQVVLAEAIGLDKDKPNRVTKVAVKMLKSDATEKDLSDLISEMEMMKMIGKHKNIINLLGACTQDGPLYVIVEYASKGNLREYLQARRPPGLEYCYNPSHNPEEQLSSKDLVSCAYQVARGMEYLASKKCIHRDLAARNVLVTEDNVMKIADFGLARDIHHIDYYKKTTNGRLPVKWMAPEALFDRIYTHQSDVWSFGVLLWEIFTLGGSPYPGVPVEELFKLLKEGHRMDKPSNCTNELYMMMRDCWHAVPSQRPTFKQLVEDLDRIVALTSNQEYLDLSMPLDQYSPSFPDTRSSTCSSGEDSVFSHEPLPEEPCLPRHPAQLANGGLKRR
Assay [12] deals with 3T3-L1. In words: Increase in glucose incorporation in mouse 3T3L1 cells at 10 uM after 12 hrs by glucose assay. The format is functional, cell-based.
Assay [13] concerns the target Vascular endothelial growth factor receptor 2 (Homo sapiens) (UniProt P35968). The assay is described as follows: Inhibition of KDR (unknown origin) at 100 uM.
The target of assay [14] is Cyclin-dependent kinase 1 (Homo sapiens) (UniProt P06493). The assay is described as follows: Inhibition of CDK1 (unknown origin) at 100 uM.
Assay [15] has as its system 3T3-L1. In words: Increase in glucose incorporation in mouse 3T3L1 cells at 34 uM after 12 hrs by glucose assay. The format is functional, cell-based.
Assay [16] addresses T1, Glycogen synthase kinase-3 beta. As to conditions: HepG2, 34 uM.
Target sequence in this assay (P49841 whole entry, looked up): as the sequence (P49841 whole entry) above
Description: Inhibition of GSK3beta in human HepG2 cells assessed as decrease in ratio of phosphorylated GS/GS at 34 uM after 12 hrs by Western blot analysis
For assay [17], the system named is HepG2. In words: Increase in glucose incorporation in human HepG2 cells at 34 uM after 12 hrs by glucose assay. The format is functional, cell-based.
Assay [18] has as its system HepG2. The assay is described as follows: Increase in glucose incorporation in human HepG2 cells at 2 uM after 12 hrs by glucose assay. The format is functional, cell-based.
For assay [19], the system named is 3T3-L1. In words: Increase in glucose incorporation in mouse 3T3L1 cells at 2 uM after 12 hrs by glucose assay. It counts as functional, cell-based.
In assay [20] the target is T1, Glycogen synthase kinase-3 beta. As to conditions: HepG2, 2 uM.
Target sequence in this assay (P49841 whole entry, looked up): as the sequence (P49841 whole entry) above
Description: Inhibition of GSK3beta in human HepG2 cells assessed as decrease in ratio of phosphorylated GS/GS at 2 uM after 12 hrs by Western blot analysis

Platelet-derived growth factor receptor beta (Homo sapiens), sequence (P09619 whole entry): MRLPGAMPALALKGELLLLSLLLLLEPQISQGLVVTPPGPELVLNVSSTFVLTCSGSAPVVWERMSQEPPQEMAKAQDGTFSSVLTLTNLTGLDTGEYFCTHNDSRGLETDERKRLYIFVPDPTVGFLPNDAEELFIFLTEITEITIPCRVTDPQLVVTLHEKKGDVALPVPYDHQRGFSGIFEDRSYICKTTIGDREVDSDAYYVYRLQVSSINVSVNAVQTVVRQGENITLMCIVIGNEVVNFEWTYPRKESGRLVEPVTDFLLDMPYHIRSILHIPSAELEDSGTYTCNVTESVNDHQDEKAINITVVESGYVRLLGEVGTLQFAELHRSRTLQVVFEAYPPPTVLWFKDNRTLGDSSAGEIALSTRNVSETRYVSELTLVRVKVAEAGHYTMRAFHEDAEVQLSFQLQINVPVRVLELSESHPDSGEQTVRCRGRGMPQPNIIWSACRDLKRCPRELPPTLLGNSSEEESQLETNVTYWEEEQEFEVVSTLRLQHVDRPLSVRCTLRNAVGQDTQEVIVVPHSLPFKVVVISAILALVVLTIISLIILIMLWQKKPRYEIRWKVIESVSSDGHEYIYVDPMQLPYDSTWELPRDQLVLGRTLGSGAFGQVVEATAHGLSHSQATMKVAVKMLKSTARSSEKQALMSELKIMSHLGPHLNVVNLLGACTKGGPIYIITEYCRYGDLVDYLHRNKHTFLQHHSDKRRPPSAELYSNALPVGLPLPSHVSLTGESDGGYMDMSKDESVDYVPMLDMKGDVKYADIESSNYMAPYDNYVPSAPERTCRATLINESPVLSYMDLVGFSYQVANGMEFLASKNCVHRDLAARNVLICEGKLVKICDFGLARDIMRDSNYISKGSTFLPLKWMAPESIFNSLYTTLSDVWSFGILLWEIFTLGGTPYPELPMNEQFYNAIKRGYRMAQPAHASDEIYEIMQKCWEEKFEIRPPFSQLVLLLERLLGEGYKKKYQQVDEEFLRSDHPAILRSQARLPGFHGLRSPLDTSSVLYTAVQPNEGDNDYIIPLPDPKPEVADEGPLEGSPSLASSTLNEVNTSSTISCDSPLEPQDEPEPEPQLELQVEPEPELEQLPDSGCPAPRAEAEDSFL

In the case of `CCCCCCCCCCCCCC(=O)NCC(=O)N[C@@H](CCCCN)C(=O)N[C@@H](CCC(=O)O)C(=O)N[C@@H](C)C(=O)N1CCC[C@H]1C(=O)N1CCC[C@H]1C(=O)N[C@@H](C)C(=O)N1CCC[C@H]1C(=O)N1CCC[C@H]1C(=O)N[C@@H](CCC(N)=O)C(=O)N[C@@H](COP(=O)(O)O)C(=O)N1CCC[C@H]1C(N)=O` (Myristoyl-GKEAPPAPPQ[pS]P-NH2), the IC50 in [1] came out at 40 µM.
On to `CCCCCCCCCCCC(=O)NNC(=O)C1Sc2ccccc2N(Cc2ccccc2)C1=O` (stereo not drawn), for which the inhibition result in assay [2] and in [8] was “Active” in each case. Besides, the IC50 in assay [1] came out at 10 µM. For the same compound, the inhibition in assay [3] was 0%; in assay [5], 0%; in assay [6] it was 13%; in assay [7], 12.2%; in assay [9] it was 0%; in assay [10] it was 0%. Besides, the figures for the inhibition in [11], in assay [13] and in assay [14] were 29.3%, 12.4% and 36%, respectively. Also, the outcome in the assay with HepG2 [4] and with 3T3-L1 [12] was Active.
With `Cn1cc(C2=C(c3ccc(Cl)cc3Cl)C(=O)NC2=O)c2ccccc21`, the outcome in the assay with 3T3-L1 [15] and with HepG2 [17] was Active. Moreover, the inhibition entry in assay [16] is “Active”.
Take `CCN(CC)CCNC(=O)c1c(C)[nH]c(/C=C2\C(=O)Nc3ccc(F)cc32)c1C`: the inhibition in assay [3] worked out at 71.4%; in [9], 70.6%.
As to `CCCCCCCCCCCC(=O)NNC(=O)C1Sc2ccccc2N(CC)C1=O` (stereo not drawn), the IC50 in assay [1] worked out at 8 µM. The result in the assay on HepG2 [4] and in the assay on 3T3-L1 [12] was Active. For the same compound, the inhibition entry in assay [8] was “Active”.
In assay [10], `CN(C)C/C=C/C(=O)Nc1cc2c(Nc3ccc(F)c(Cl)c3)ncnc2cc1O[C@H]1CCOC1` had an inhibition of 88.1%.
`Cn1sc(=O)n(Cc2ccccc2)c1=O`: the result with HepG2 [18] and in the assay with 3T3-L1 [19] was Active. Also, in assay [20], the inhibition result is “Active”.
